Experimental data from PubChem BioAssay AID192 (DTP/NCI, 2004).
“And” between values parts separate entries of the source, which are not always exact repeats. Equal entries are not always repeated. Toxic doses and inconclusive results are not listed.

Test system: BDF1 mice, B16 melanoma ip, median survival T/C
Test: NCI In Vivo Anticancer Drug Screen. Data for tumor model B16 Melanoma (intraperitoneal) in B6D2F1 (BDF1) mice
Conditions: endpoint: median survival time, higher = longer survival
In short: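 Mice with transplantable tumors; drug vs vehicle groups; endpoint survival or tumor size; value = T/C.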

[1] = dose: 6.25 mg/kg/injection, schedule: Q01DX009 (ip), vehicle: Klucel (hydroxypropylcellulose) (HPC)
[2] = dose: 6.25 mg/kg/injection, schedule: Q01DX009 (ip), vehicle: saline with Tween-80
[3] = dose: 12.5 mg/kg/injection, schedule: Q01DX009 (ip), vehicle: Klucel (hydroxypropylcellulose) (HPC)
[4] = dose: 12.5 mg/kg/injection, schedule: Q01DX009 (ip), vehicle: saline with Tween-80
[5] = dose: 25.0 mg/kg/injection, schedule: Q01DX009 (ip), vehicle: Klucel (hydroxypropylcellulose) (HPC)
[6] = dose: 25.0 mg/kg/injection, schedule: Q01DX009 (ip), vehicle: saline with Tween-80
[7] = dose: 50.0 mg/kg/injection, schedule: Q01DX009 (ip), vehicle: saline with Tween-80
[8] = dose: 50.0 mg/kg/injection, schedule: Q04DX003 (ip), vehicle: saline with Tween-80
[9] = dose: 100.0 mg/kg/injection, schedule: Q01DX009 (ip), vehicle: saline with Tween-80
[10] = dose: 100.0 mg/kg/injection, schedule: Q04DX003 (ip), vehicle: saline with Tween-80
[11] = dose: 50.0 mg/kg/injection, schedule: Q01DX009 (ip), vehicle: Klucel (hydroxypropylcellulose) (HPC)
[12] = dose: 100.0 mg/kg/injection, schedule: Q01DX009 (ip), vehicle: Klucel (hydroxypropylcellulose) (HPC)
[13] = dose: 12.5 mg/kg/injection, schedule: Q01DX009 (ip), vehicle: saline
[14] = dose: 25.0 mg/kg/injection, schedule: Q01DX009 (ip), vehicle: saline
[15] = dose: 50.0 mg/kg/injection, schedule: Q01DX009 (ip), vehicle: saline

SMILES: O=C1C2(Cl)C3(Cl)C4(Cl)C(Cl)(Cl)C5(Cl)[C@]3(Cl)C1(Cl)[C@]5(Cl)C24Cl (stereo partly drawn)
- T/C (dose: 3.12 mg/kg/injection, schedule: Q01DX009 (ip), vehicle: Klucel (hydroxypropylcellulose) (HPC)): 97 % of control
- T/C [1]: 105 % of control
- T/C [2]: 102 % of control
- T/C [3]: 98 % of control
- T/C [4]: 106 % of control
- T/C [5]: 110 % of control

SMILES: C=CC1CC[N-]CC1.C=CC1CC[N-]CC1.C=CC1CC[N-]CC1.[Cl][Cr]([Cl])[Cl]
- T/C (dose: 8.0 mg/kg/injection, schedule: Q04DX003 (ip), vehicle: saline with Tween-80): 97 % of control
- T/C (dose: 12.0 mg/kg/injection, schedule: Q04DX003 (ip), vehicle: saline with Tween-80): 102 % of control
- T/C [4]: 95 % of control
- T/C (dose: 18.0 mg/kg/injection, schedule: Q04DX003 (ip), vehicle: saline with Tween-80): 105 % of control
- T/C [6]: 95 % of control
- T/C (dose: 25.0 mg/kg/injection, schedule: Q04DX003 (ip), vehicle: saline with Tween-80): 121 % of control
- T/C [7]: 102 % of control
- T/C [8]: 113 % of control

SMILES: Cc1cc(O)c(C)c(C)c1Cl
- T/C [6]: 100 % of control
- T/C [7]: 97 % of control
- T/C [8]: 92 % of control
- T/C [9]: 97 % of control
- T/C [10]: 95 % of control

SMILES: O=C(O)C1Cc2c([nH]c3ccccc23)C(CCCCO)N1 (stereo not drawn)
- T/C [1]: 99 % of control
- T/C [3]: 101 % of control
- T/C [5]: 107 % of control

SMILES: C[C@@H]1CC2=CC(=O)C=C[C@]2(C)[C@H]2CC[C@@]3(C)[C@@H](CC[C@]3(C)O)[C@H]12
- T/C [1]: 107 % of control
- T/C [3]: 103 % of control
- T/C [5]: 102 % of control
- T/C [11]: 95 % of control
- T/C [12]: 93 % of control

SMILES: O=C(CCl)c1ccc(O)c(O)c1
- T/C [3]: 94 % of control
- T/C [5]: 87 % of control

SMILES: O=C1c2ccccc2C(=O)c2c(NCCSCCO)ccc(NCCSCCO)c21
- T/C (dose: 16.0 mg/kg/injection, schedule: Q01DX009 (ip), vehicle: Klucel (hydroxypropylcellulose) (HPC)): 94 % of control
- T/C (dose: 32.0 mg/kg/injection, schedule: Q01DX009 (ip), vehicle: Klucel (hydroxypropylcellulose) (HPC)): 103 % of control
- T/C (dose: 64.0 mg/kg/injection, schedule: Q01DX009 (ip), vehicle: Klucel (hydroxypropylcellulose) (HPC)): 96 % of control
- T/C (dose: 128.0 mg/kg/injection, schedule: Q01DX009 (ip), vehicle: Klucel (hydroxypropylcellulose) (HPC)): 88 % of control
- T/C (dose: 256.0 mg/kg/injection, schedule: Q01DX009 (ip), vehicle: Klucel (hydroxypropylcellulose) (HPC)): 87 % of control

SMILES: CCC1(C(C)Br)OC2=C(CC(C#N)(C#N)C(C#N)(C#N)C2)O1 (stereo not drawn)
- T/C (dose: 75.0 mg/kg/injection, schedule: Q04DX003 (ip), vehicle: Klucel (hydroxypropylcellulose) (HPC)): 87 % of control

SMILES: FC(F)(F)c1ccc2c(c1)N(CCCN1CCN(CCN3CCOCC3)CC1)c1ccccc1S2
- T/C (dose: 0.37 mg/kg/injection, schedule: Q01DX009 (ip), vehicle: saline): 97 % of control
- T/C (dose: 0.75 mg/kg/injection, schedule: Q01DX009 (ip), vehicle: saline): 87 % of control
- T/C (dose: 1.5 mg/kg/injection, schedule: Q01DX009 (ip), vehicle: saline): 115 % of control
- T/C (dose: 3.0 mg/kg/injection, schedule: Q01DX009 (ip), vehicle: saline): 112 % of control

SMILES: Cc1c2cc[n+](C)c(C)c2cc2c1[nH]c1ccc(O)cc12
- T/C (dose: 2.5 mg/kg/injection, schedule: Q04DX003 (ip), vehicle: water): 117 % of control and 120 % of control
- T/C (dose: 10.0 mg/kg/injection, schedule: Q04DX003 (ip), vehicle: water): 150 % of control

SMILES: CCC(=O)Oc1[nH]c(C)c(C(C)=O)c1C
- T/C [9]: 102 % of control
- T/C (dose: 200.0 mg/kg/injection, schedule: Q01DX009 (ip), vehicle: saline with Tween-80): 100 % of control
- T/C (dose: 400.0 mg/kg/injection, schedule: Q01DX009 (ip), vehicle: saline with Tween-80): 95 % of control

SMILES: O=C1c2cccc3cc([N+](=O)[O-])cc(c23)C(=O)N1CCN1CCCC1
- T/C (dose: 1.56 mg/kg/injection, schedule: Q01DX009 (ip), vehicle: saline with Tween-80): 109 % of control
- T/C (dose: 3.12 mg/kg/injection, schedule: Q01DX009 (ip), vehicle: saline with Tween-80): 110 % of control and 111 % of control
- T/C [2]: 91 % of control and 118 % of control
- T/C [6]: 110 % of control

SMILES: [I][Pt+2][I].[NH-]CC[NH-]
- T/C (dose: 2.75 mg/kg/injection, schedule: Q01DX009 (ip), vehicle: Klucel (hydroxypropylcellulose) (HPC)): 110 % of control
- T/C (dose: 5.5 mg/kg/injection, schedule: Q01DX009 (ip), vehicle: Klucel (hydroxypropylcellulose) (HPC)): 109 % of control and 114 % of control
- T/C (dose: 11.0 mg/kg/injection, schedule: Q01DX009 (ip), vehicle: Klucel (hydroxypropylcellulose) (HPC)): 109 % of control and 113 % of control
- T/C (dose: 22.0 mg/kg/injection, schedule: Q01DX009 (ip), vehicle: Klucel (hydroxypropylcellulose) (HPC)): 120 % of control

SMILES: NC(=S)N/N=C/c1ccc(OC(=O)COc2ccc(Cl)cc2)cn1
- T/C [6]: 111 % of control
- T/C [7]: 116 % of control
- T/C [9]: 117 % of control

SMILES: C[N+](C)(C)C1CC1
- T/C [13]: 105 % of control
- T/C [14]: 102 % of control
- T/C [15]: 102 % of control

SMILES: O=C(OCCOCCOCCOC(=O)c1ccccc1)c1ccccc1
- T/C (dose: 400.0 mg/kg/injection, schedule: Q01DX009 (ip), vehicle: Klucel (hydroxypropylcellulose) (HPC)): 121 % of control

SMILES: CCC(C)C(C#N)(CCN(CC)CC)c1ccccc1 (stereo not drawn)
- T/C [5]: 121 % of control
- T/C [11]: 118 % of control
- T/C [12]: 109 % of control

SMILES: CC[C@](O)(C(=O)O)c1cc2n(c(=O)c1CO)Cc1cc3ccccc3nc1-2
- T/C (dose: 0.79 mg/kg/injection, schedule: Q01DX009 (ip), vehicle: other): 117 % of control
- T/C (dose: 1.0 mg/kg/injection, schedule: Q01DX009 (ip), vehicle: saline): 115 % of control and 121 % of control
- T/C (dose: 2.0 mg/kg/injection, schedule: Q01DX009 (ip), vehicle: saline): 117 % of control
- T/C (dose: 4.0 mg/kg/injection, schedule: Q01DX009 (ip), vehicle: saline): 150 % of control

SMILES: C[Si]1(C)CCCSC1
- T/C [4]: 98 % of control
- T/C [6]: 98 % of control
- T/C [7]: 91 % of control

SMILES: CCCCNCC1COc2cccc(OCC)c2O1 (stereo not drawn)
- T/C (dose: 3.12 mg/kg/injection, schedule: Q01DX009 (ip), vehicle: saline): 120 % of control
- T/C (dose: 6.25 mg/kg/injection, schedule: Q01DX009 (ip), vehicle: saline): 95 % of control
- T/C [13]: 97 % of control
- T/C [14]: 105 % of control
- T/C [15]: 100 % of control

SMILES: CCOC(=O)CCCN(c1sc(C)c(C)c1C(=O)OCC)S(=O)(=O)c1ccc(C)cc1
- T/C [8]: 111 % of control
- T/C [10]: 105 % of control
- T/C (dose: 200.0 mg/kg/injection, schedule: Q04DX003 (ip), vehicle: saline with Tween-80): 111 % of control
- T/C (dose: 400.0 mg/kg/injection, schedule: Q04DX003 (ip), vehicle: saline with Tween-80): 100 % of control

SMILES: COc1cccc2c1C(=O)c1c(O)c3c(c(O)c1C2=O)C[C@@](O)(/C(CO)=N/NC(=O)c1ccc(Cl)c(Cl)c1)C[C@@H]3OC1CC(N)C(O)C(C)O1 (stereo partly drawn)
- T/C (dose: 2.5 mg/kg/injection, schedule: Q01DX001 (ip), vehicle: other): 119 % of control
- T/C (dose: 10.0 mg/kg/injection, schedule: Q01DX001 (ip), vehicle: water): 111 % of control and 252 % of control
- T/C (dose: 20.0 mg/kg/injection, schedule: Q01DX001 (ip), vehicle: other): 247 % of control
- T/C (dose: 20.0 mg/kg/injection, schedule: Q01DX001 (ip), vehicle: water): 102 % of control
- T/C (dose: 40.0 mg/kg/injection, schedule: Q01DX001 (ip), vehicle: water): 250 % of control
- T/C (dose: 80.0 mg/kg/injection, schedule: Q01DX001 (ip), vehicle: water): 105 % of control

SMILES: CCCn1cnc2c(=S)nc[nH]c21
- T/C [4]: 120 % of control
- T/C [6]: 116 % of control
- T/C [7]: 106 % of control

SMILES: CC1(C)N=C(N)N=C(N)N1c1ccc(OCCCNC(=O)Nc2cccc(S(=O)(=O)F)c2)c(Cl)c1
- T/C [14]: 102 % of control
- T/C [15]: 124 % of control

SMILES: CCCCCCCCCC(=O)OC(C)C(=O)N(CCCC)CCCC (stereo not drawn)
- T/C [6]: 98 % of control
- T/C [7]: 97 % of control
- T/C [9]: 88 % of control

SMILES: O=C(Nc1ccc(C(=O)O)cc1)Nc1nccs1
- T/C (dose: 25.0 mg/kg/injection, schedule: Q01DX009 (ip), vehicle: distilled water + Tween-80): 113 % of control
- T/C (dose: 100.0 mg/kg/injection, schedule: Q01DX009 (ip), vehicle: distilled water + Tween-80): 113 % of control
- T/C (dose: 200.0 mg/kg/injection, schedule: Q01DX009 (ip), vehicle: distilled water + Tween-80): 113 % of control

SMILES: Cc1cnc2c(N)[nH]nc2n1
- T/C [11]: 97 % of control
- T/C [12]: 106 % of control
- T/C (dose: 200.0 mg/kg/injection, schedule: Q01DX009 (ip), vehicle: Klucel (hydroxypropylcellulose) (HPC)): 107 % of control
